Experimental findings from patent US4394382A, “Dihydrobenzopyran compounds and pharmaceutical composition comprising said compounds” (Kowa Company, Ltd., priority 1980, dated 1983) are described below.

The nature of assay [1]: urine and electrolyte excretion, oral water load method. In kind it is in vivo. Conditions: rat, over 5 hours; for Amount of urine: average ± standard deviation. Here is the method:
Using rats, five per group, the amount of urine and the amount of electrolytes (sodium, potassium) excreted were measured over 5 hours after oral administration of each of the drugs by an oral water load method. Each of the test drugs was suspended in a 0.5% carboxymethyl cellulose solution and orally administered. Each of the numerical values given in the table is an average value ± standard deviation.

Assay [2] deals with various isolated smooth muscles. Kind of assay: activities on various isolated smooth muscles, overall (Magnus method). On the procedure:
(§1) The activities of the compounds Ia and Ib on various isolated smooth muscles were examined by the Magnus method. Each of the test drugs was used in a concentration of 10^-9 to 4×10^-4 mole/1000 ml (M).

In assay [3] the test system is Femoral blood flow (femoral artery). In words: femoral blood flow in anesthetized dogs. It is filed as in vivo, dog. To be noted: 1 to 300 μg/kg, *: an increase of about 10% as low doses, and a decrease of about 20% at high doses. On the procedure:
Adult dogs were anesthetized with 30 mg/kg of pentobarbital administered intravenously and ventilated artificially. The effect of the compounds Ia and Ib on hemodynamic parameters was investigated. Drugs were used dissolved in 0.1 N hydrochloric acid and administered over the 1 to 300 μg/kg dose range.
Measured with an electromagnetic flowmeter probe placed on the femoral artery.

The test system of assay [4] is potassium contracture, mesenteric artery. In words: isolated mesenteric artery, antagonistic action on potassium contracture (Magnus method). Conditions: dog mesenteric artery, 50% inhibition of maximum reaction, reciprocal logarithm of molar concentration. Here is the method: as §1
(§2) (6) Isolated mesenteric artery
(§3) Using an isolated mesenteric artery of a dog, the antagonistic action of the test drugs on (a) potassium contracture and (b) norepinephirine was examined.

Assay [5] deals with T1, isoproterenol, atrium dextrum and atrium sinistrum (Cavia porcellus, UniProt H0W3H1).
T1 construct: Using the atrium dextrum and atrium sinistrum of a guinea pig; from tissue; host or cells: guinea pig right and left atria
Kind of assay: isolated atrium cordis samples, antagonistic action on isoproterenol (Magnus method). To be noted: guinea pig atrium, vs isoproterenol; reciprocal logarithm of molar concentration. On the procedure: (§4) Each of the test drugs was used in a concentration of 10^-9 to 4×10^-4 mole/1000 ml (M).
(1) Isolated atrium cordis samples
Using the atrium dextrum and atrium sinistrum of a guinea pig, the contractile force and rhythem were recorded, and the antagonistic action of the test drugs on isoproterenol was examined.

Assay [6] concerns norepinephirine, mesenteric artery. Kind of assay: isolated mesenteric artery, antagonistic action on norepinephrine (Magnus method). To be noted: dog mesenteric artery, vs norepinephrine; reciprocal logarithm of molar concentration. Here is the method: as §1, §2, §3
A further assay deals with T2, isoproterenol, bronchus (Cavia porcellus, UniProt Q8K4Z4).
T2 construct: Using the bronchus of a guinea pig; from tissue; host or cells: guinea pig bronchus
In words: isolated bronchus sample, antagonistic action on isoproterenol (Magnus method). To be noted: guinea pig bronchus, vs isoproterenol, reciprocal logarithm of molar concentration. On the procedure: as §4
(2) Isolated bronchus sample
Using the bronchus of a guinea pig, the antagonistic action of the test drugs on isoproterenol was examined.

Assay [7] has as its system potassium contracture, saphenous vein. In words: isolated saphenous vein, action on potassium contracture (Magnus method). To be noted: dog saphenous vein, 50% inhibition of maximum reaction, reciprocal logarithm of molar concentration. Here is the method:
as §1
(5) Isolated saphenous vein
Using an isolated saphenous vein of a dog, the action of the test drugs on potassium contracture was examined.

For assay [8], the system named is potassium contracture, left circumflex branch (coronary artery). In words: isolated coronary artery, action on potassium contracture (Magnus method). Conditions: dog coronary artery, 50% inhibition of maximum reaction, reciprocal logarithm of molar concentration. Here is the method: Each of the test drugs was used in a concentration of 10^-9 to 4×10^-4 mole/1000 ml (M). (3) Isolated coronary artery Using the left circumflex branch of a dog, the action of the test drugs on potassium contracture was examined.

For assay [9], the system named is potassium contracture, portal vein. Kind of assay: isolated portal vein, action on potassium contracture (Magnus method). To be noted: dog portal vein, 50% inhibition of maximum reaction, reciprocal logarithm of molar concentration. On the procedure: as §1
Using an isolated portal vein of a dog, the action of the test drugs on potassium contracture was examined.

[10] abbreviates: 30 mg/kg, controls 22.5 ± 1.4 and (second set) 19.4 ± 4.0.
Setting [11] is: 30 mg/kg, controls 0.18 ± 0.04 and (second set) 0.21 ± 0.08.
Setting [12] is: 30 mg/kg, controls 0.53 ± 0.15 and (second set) 0.55 ± 0.14.
The mark [13] stands for this setting: 30 mg/kg, controls 3.08 ± 0.27 and (second set) 2.76 ± 0.83.

Structures are written as SMILES. Where a name gives a salt, the structure may show the parent alone.

T2 sequence (Q8K4Z4 whole entry): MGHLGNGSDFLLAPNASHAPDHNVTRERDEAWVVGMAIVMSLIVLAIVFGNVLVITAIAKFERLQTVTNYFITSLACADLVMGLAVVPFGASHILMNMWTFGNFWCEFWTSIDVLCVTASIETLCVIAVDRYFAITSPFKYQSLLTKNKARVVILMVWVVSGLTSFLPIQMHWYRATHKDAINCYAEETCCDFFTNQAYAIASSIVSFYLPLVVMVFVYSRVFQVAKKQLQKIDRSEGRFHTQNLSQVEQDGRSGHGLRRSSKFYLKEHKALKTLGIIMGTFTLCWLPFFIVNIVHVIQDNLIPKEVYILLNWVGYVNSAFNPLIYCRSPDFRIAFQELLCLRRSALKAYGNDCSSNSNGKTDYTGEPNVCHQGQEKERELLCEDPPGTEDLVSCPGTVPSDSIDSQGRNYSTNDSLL
T1 sequence (H0W3H1 1-470): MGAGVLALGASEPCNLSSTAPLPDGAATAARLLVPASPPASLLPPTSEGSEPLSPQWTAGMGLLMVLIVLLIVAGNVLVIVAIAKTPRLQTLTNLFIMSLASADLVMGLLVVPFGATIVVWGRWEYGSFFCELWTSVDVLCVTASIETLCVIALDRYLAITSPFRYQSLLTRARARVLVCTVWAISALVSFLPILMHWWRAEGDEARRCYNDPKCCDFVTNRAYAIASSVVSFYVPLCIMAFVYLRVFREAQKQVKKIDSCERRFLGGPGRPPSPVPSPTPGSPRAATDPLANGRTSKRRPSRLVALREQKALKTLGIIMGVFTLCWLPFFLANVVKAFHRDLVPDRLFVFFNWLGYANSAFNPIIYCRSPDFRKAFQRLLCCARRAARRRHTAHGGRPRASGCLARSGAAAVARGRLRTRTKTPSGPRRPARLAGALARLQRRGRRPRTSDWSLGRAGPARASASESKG

Take `CC(C)NCC(O)COc1cccc2ccccc12` (centres unmarked) [Comparative drug I, propranolol hydrochloride, reference compound]: the Amount of urine in assay [1] (setting [10]) is 27.8 ± 3.7 mL/kg. In assay [1] (setting [11]), this compound returned a K/Na of 0.21 ± 0.04. Further, the K excreted in assay [1] (setting [12]) amounted to 0.70 ± 0.11 mEq/kg. Further, in [1] (setting [13]), the Na excreted came out at 3.42 ± 0.28 mEq/kg.
The matching figures for `NS(=O)(=O)c1cc2c(cc1Cl)NC(C(Cl)Cl)NS2(=O)=O` (centres unmarked) [Comparative drug II, trichlormethiazide, reference compound]: 34.8 ± 1.7 mL/kg, 0.21 ± 0.04, 1.12 ± 0.18 mEq/kg and 5.36 ± 0.42 mEq/kg.
Take `CC(C)NCC(O)COc1cccc2c1OCC(O[N+](=O)[O-])C2` (centres unmarked) [Compound Ia, 3,4-dihydro-8-[(2-hydroxy-3-isopropylamino)propoxy]-3-nitrato-2H-benzopyran]: the “β- and α-blocking activities” value in assay [2] is “strong β- and α-blocking activities”. Further, the “(8) Femoral blood flow*” value in assay [3] is given as “+~-”. The “(6) (a) pD'2” value in assay [4] is recorded as 5.2-5.3. The Amount of urine was found to be 24.2 ± 2.2 mL/kg in [1] (10 mg/kg, control 22.5 ± 1.4); 31.1 ± 3.2 mL/kg in assay [1] (setting [10]); 34.0 ± 3.7 mL/kg in assay [1] (100 mg/kg, control 19.4 ± 4.0). Also, the K excreted was determined as 0.61 ± 0.20 mEq/kg in [1] (10 mg/kg, control 0.53 ± 0.15); 0.91 ± 0.23 mEq/kg in assay [1] (setting [12]); 0.14 ± 0.45 mEq/kg in assay [1] (100 mg/kg, control 0.55 ± 0.14). The Na excreted in assay [1] (10 mg/kg, control 3.08 ± 0.27) is reported as 3.25 ± 0.18 mEq/kg; in assay [1] (setting [13]), 4.18 ± 0.56 mEq/kg; in [1] (100 mg/kg, control 2.76 ± 0.83) it was 3.69 ± 0.33 mEq/kg. Besides, the K/Na was found to be 0.20 ± 0.05 in [1] (setting [11]); 0.30 ± 0.10 in assay [1] (100 mg/kg, control 0.21 ± 0.08); 0.19 ± 0.07 in [1] (control 0.18 ± 0.04). Further, the “(1) pA2” value in [5] turned out to be 9.1. Also, in assay [6], the “(6) (b) pA2” value was 7.0-7.1. Moreover, on isoproterenol, bronchus, the “(2) pA2” value is 9.1-9.2. For the same compound, in assay [7], the “(5) pD'2” value is listed as 5.8-6.0. In assay [8], the “(3) pD'2” value is 6.2-6.3. Moreover, in assay [9], the “(4) pD'2” value is reported as 6.3-6.4.
In the case of `CC(C)NCC(O)COc1cccc2c1OCC(CO[N+](=O)[O-])C2` (centres unmarked) [Compound Ib, 3,4-dihydro-8-[(2-hydroxy-3-isopropylamino)propoxy]-3-nitratomethyl-2H-benzopyran], the “(8) Femoral blood flow*” value in assay [3] was “+~-”. Besides, the “(6) (a) pD'2” value in [4] is 5.6. In addition, the Amount of urine in assay [1] (setting [10]) was 32.6 ± 4.5 mL/kg. The K/Na in assay [1] (setting [11]) turned out to be 0.21 ± 0.08. This compound showed a K excreted in [1] (setting [12]) of 0.83 ± 0.36 mEq/kg. Moreover, the Na excreted in assay [1] (setting [13]) was 3.87 ± 0.64 mEq/kg. In addition, the “(1) pA2” value in assay [5] is listed as 7.83. In addition, the “(6) (b) pA2” value in assay [6] amounted to 6.4. Also, the Kb on isoproterenol, bronchus (read-out: (2) pA2 (converted)) was 5.13 nM. For the same compound, the “(5) pD'2” value in assay [7] is recorded as 6.2. For the same compound, the “(3) pD'2” value in assay [8] worked out at 5.7. In addition, the “(4) pD'2” value in [9] is recorded as 6.2.
